We go through two compounds from US5250537A, “5,6,7,8,9,10-hexahydro-7 ,10-iminocyclohept[b]indole,-6,7,8,9,10-hexahydro-7,11-imino-5H-cyclooct[ b]indole and substituted derivatives” (Scios Nova Inc., priority 1992, dated 1993).

In assay [1] the test system is dopamine receptors. As to conditions: Welch et al. 1980; cited from earlier work.
A further assay deals with dopamine D-2 receptors. The following applies: Snyder and Largent 1988; cited from earlier work.
The next assay has as its system sigma receptors. The following applies: Snyder and Largent 1988; cited from earlier work.
Assay [2] deals with dopamine receptors. Briefly: In Vivo Dopamine Antagonist Activity (inhibition of apomorphine-induced climbing). On the set-up: species or system mice (CF-1). As to conditions: intraperitoneal (ip) administration.

Where a name gives a salt, the structure may show the parent alone.

Turning to `OC(CCCN1CC[C@@H]2[C@@H](C1)c1cc(F)ccc1N2c1ccc(F)cc1)c1ccc(F)cc1` (relative stereo) [4a,9b-trans-8-fluoro-5-(4-fluorophenyl)-2-[4-(4-fluorophenyl)-4-hydroxy-butyl]-2,3,4,4a,9b-hexahydro-1H-pyrido[4,3-b]indole hydrochloride], the “neuroleptic activity (in words)” value in the assay with dopamine receptors [1] is “potent neuroleptic which acts by blocking dopamine receptors”.
As for `O=C(CCCN1CCC(O)(c2ccc(Cl)cc2)CC1)c1ccc(F)cc1` [haloperidol], in the assay with dopamine D-2 receptors, the “binding to dopamine D-2 receptors (in words)” value was “bind to both dopamine D-2 and sigma receptors”. For the same compound, the “binding to sigma receptors (in words)” value in the assay with sigma receptors was “bind to both dopamine D-2 and sigma receptors”. Besides, the “potency to inhibit apomorphine-induced climbing (reference)” value with dopamine receptors [2] is 0.01 mg/kg.
